Data published in paper PMC2716488, “Functional Expression of a DNA-Topoisomerase IB from Cryptosporidium parvum” (Journal of Biomedicine and Biotechnology, 2009).

Target: T1, CpTopIB (Cryptosporidium parvum, UniProt Q5CY81)
T1 construct: gene cgd7_3350; expressed from YCpGAL in S. cerevisiae EKY3 (top1 deleted), purified on phosphocellulose and phenyl-sepharose; monomer; no tag mentioned
T1 sequence (Q5CY81 13-653): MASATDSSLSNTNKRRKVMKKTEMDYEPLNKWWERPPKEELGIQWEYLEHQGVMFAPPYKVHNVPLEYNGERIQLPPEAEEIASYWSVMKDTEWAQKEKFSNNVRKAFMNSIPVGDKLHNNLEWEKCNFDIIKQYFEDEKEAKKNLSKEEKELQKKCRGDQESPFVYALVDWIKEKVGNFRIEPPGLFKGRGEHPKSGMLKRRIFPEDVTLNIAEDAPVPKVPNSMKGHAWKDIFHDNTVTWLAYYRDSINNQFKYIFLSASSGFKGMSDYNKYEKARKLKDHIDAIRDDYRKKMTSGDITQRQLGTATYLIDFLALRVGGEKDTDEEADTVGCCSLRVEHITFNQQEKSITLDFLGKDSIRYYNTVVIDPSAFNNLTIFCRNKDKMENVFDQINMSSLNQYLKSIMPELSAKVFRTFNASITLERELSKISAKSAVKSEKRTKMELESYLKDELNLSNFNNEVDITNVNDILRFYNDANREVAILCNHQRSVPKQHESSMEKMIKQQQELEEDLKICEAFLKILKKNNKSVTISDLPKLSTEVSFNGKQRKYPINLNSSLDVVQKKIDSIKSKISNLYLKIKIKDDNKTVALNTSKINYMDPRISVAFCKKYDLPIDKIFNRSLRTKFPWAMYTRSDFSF
Assay: DNA cleavage assay, nicked DNA on agarose gel
Assay type: biochemical
Details: supercoiled phiX174 RF I DNA, pH 7.5, 50 mM KCl, 1% DMSO, 30 or 37°C; stabilises the enzyme-DNA cleavable complex

Structure (SMILES)	nicked-DNA increase at 10 and 100 μM
CC[C@@]1(O)C(=O)OCc2c1cc1n(c2=O)Cc2cc3ccccc3nc2-1 [CPT, camptothecin]	There is a dose-dependent nicked-DNA increase for CPT and topotecan
CC[C@@]1(O)C(=O)OCc2c1cc1n(c2=O)Cc2cc3c(CN(C)C)c(O)ccc3nc2-1 [topotecan]	There is a dose-dependent nicked-DNA increase for CPT and topotecan
